# Data reported in patent publication US10117874B2, “Combination of PI3K-inhibitors” (BAYER PHARMA AKTIENGESELLSCHAFT, priority 2013, dated 2018).
# How the values were obtained:
# [1] = system: LNCaP prostate cancer cells; experiment: WST-1 based proliferation assay, LNCaP; type: cell-based, human
# Protocol: (§1) The effects of PI3K inhibitor compound A′ and compound B in MCF-7 and 4T1 breast cancer cells and PC-3 and LNCaP prostate cancer cells were investigated in vitro as single agent and in combination. The effects were studied by measuring cell proliferation and apoptosis. Compound B and the reference inhibitor doxorubicin were added at day 0. The PI3K inhibitors were added at day −1 (24 hours before addition of Alpharadin) and at day 4. The following two concentrations of the inhibitors and two concentrations of radium 223 in 4 replicates were tested:
# (§2) The effects on cell proliferation were studied using a WST-1 based proliferation assay and the effects on apoptosis were studied in parallel plates by measuring caspase 3/7 activity. The measurements were performed at 4 different time points, days 1, 2, 3 and 5. Caspase activity was normalized to the cell number obtained with the WST-1 assay in parallel plates.
# (A) The results are shown as Absorbance (450 nm) measured in the WST-1 proliferation assay (MEAN).
# [2] = system: MCF-7 breast cancer cells; experiment: WST-1 based proliferation assay, MCF-7; type: cell-based, human; conditions: MCF-7 (ER+, PIK3CA mutation); WST-1 absorbance 450 nm, days 1-5; compound A′ 50/500 nM, compound B 1600/800 Bq/ml
# Protocol: as §1, §2
# (§3) (A) The results are shown as Absorbance (450 nm) measured in the WST-1 proliferation assay (MEAN). (B) The results are shown as Caspase 3/7/WST-1 values (MEAN). […] (B) The effects of PI3K inhibitor compound A′ and Radium 223 on MCF-7 cell caspase 3/7 activity at days 2. The results are shown as Caspase 3/7/WST-1 values (MEAN+SEM).
# 4T1 breast cancer cells = experiment: WST-1 based proliferation assay, 4T1; type: cell-based, mouse
# Protocol: as §1, §2
# (§4) The results are shown as Absorbance (450 nm) measured in the WST-1 proliferation assay (MEAN).
# [3] = system: MCF-7 breast cancer cells; experiment: Apoptosis by caspase 3/7 activity, MCF-7; type: cell-based, human; conditions: day 2, caspase activity normalized to WST-1 cell number
# Protocol: as §1, §2, §3
# [4] = system: PC-3 prostate cancer cells; experiment: WST-1 based proliferation assay, PC-3; type: cell-based, human; conditions: PC3 (AR-negative, PTEN loss); WST-1 absorbance 450 nm, days 1-5; compound A′ 50/500 nM, compound B 1600/800 Bq/ml
# Protocol: as §1, §2, §4
# CRPC and bone metastases = conditions: Phase 2 studies; cited from earlier work
# [5] = single doses up to 250 kBq per kg body weight; cited from earlier work
# [6] = phase 1 and 2 studies; patients with bone metastases; cited from earlier work
# [7] = system: CRPC (Castration Resistant Prostate Cancer) and bone metastases; conditions: cited from earlier work
# [8] = LNCaP (AR-positive, PTEN loss), WST-1 absorbance 450 nm, days 1-5
# [9] = WST-1 absorbance 450 nm, days 1-5, compound A′ 100/1000 nM, compound B 1600/800 Bq/ml
# [10] = ALSYMPCA trial, patients with CRPC and bone metastases
SMILES,"inhibition of tumor cell proliferation [1, 8]",inhibition of tumor cell proliferation [2],inhibition of tumor cell proliferation (4T1 breast cancer cells; lower (100 nM) dose),apoptosis / tumor cell death induction (caspase 3/7 / WST-1) [3],inhibition of tumor cell proliferation [4],"inhibition of tumor cell proliferation ([1]; LNCaP, high dose (1600 Bq/mL))","pain and disease-related biomarkers (bone ALP, PSA) (CRPC and bone metastases)",cases of grade 3 neutropenia [5],observed adverse reactions [5],safety profile [6],inhibition of tumor cell proliferation (4T1 breast cancer cells; [9]),inhibition of tumor cell proliferation (4T1 breast cancer cells; higher dose),"median survival longer than placebo [7, 10] [months]","reduction in risk of death compared with placebo [7, 10] [%]","time to first skeletal-related event ([7]; ALSYMPCA trial, versus placebo)",median overall survival ([7]; Phase III clinical trials)
"COc1c(OCCCN2CCOCC2)ccc2c1N=C(NC(=O)c1cnc(N)nc1)N1CCN=C21.Cl.Cl [compound A′, 2-amino-N-[7-methoxy-8-(3-morpholin-4-ylpropoxy)-2,3-dihydroimidazo[1,2-c]quinazolin-5-yl]pyrimidine-5-carboxamide dihydrochloride]",strong anti-proliferative effects,potent anti-proliferative activity,only moderate inhibition of tumor cell proliferation,only at high dose can induce apoptosis,better anti-proliferactive activity,–,–,–,–,–,–,–,–,–,–,–
"[Cl][223Ra][Cl] [compound B, radium-223 dichloride]",–,only slight inhibition of tumor cell proliferation,–,could not induce tumor cell death,moderate inhibition of tumor cell proliferation,effective,"reduces pain, improves disease-related biomarkers",⅕,diarrhea and reversible myelosuppression,"favorable safety profile, with minimal myelotoxicity",only moderate inhibition of tumor cell proliferation,strong anti-proliferative effects,2.8,30.5,significantly prolonged,Significant increase in median overall survival
COc1cccc2c1C(=O)c1c(O)c3c(c(O)c1C2=O)C[C@@](O)(C(=O)CO)C[C@@H]3O[C@H]1C[C@H](N)[C@H](O)[C@H](C)O1 [doxorubicin],inhibited proliferation,inhibited proliferation,–,–,inhibited proliferation,–,–,–,–,–,inhibited proliferation,–,–,–,–,–
